Patent US10670600B2, “Saposin-A derived peptides and uses thereof” (CHILDREN'S MEDICAL CENTER CORPORATION, priority 2007, dated 2020)
Bridge positions count the residues as written; N and C are the ends. Ends that are not written are not given here.

Legend:
[1] = test system: Psap in PC3-MycER cells; experiment: Psap levels in PC3-MycER cells, western blot; assay type: cell-based, human; details: induction of Myc function
Method: For Western blotting, cells were harvested by mechanical scraping into 4° C. PBS, cell pellets were obtained by removing PBS after centrifugation at 13,000 rpm in a Heraeus Biofuge Fresco (Thermo Electron, Asheville, N.C.) for 2 min. Cells were then lysed in 50 mM Tris-HCl (pH 7.4), 150 mM NaCl, 1% NP40, 1 mM sodium orthovanadate, 5 mM NaF, 20 mM β-glycerophosphate, and complete protease inhibitor (Roche, Indianapolis, Ind.) and protein concentrations were determined by the BioRad protein assay (BioRad, Hercules, Calif.). Fifty micrograms of protein were loaded per well onto a 4-12% pre-cast Bis-Tris gel (BioRad, Hercules, Calif.). The protein extracts were electrophoresed and transferred to an immobilon-P membrane (Millipore, Bedford, Mass.). The membranes were blocked in 5% nonfat milk and incubated in primary antibody to Tsp-1 (Ab-11, LabVision, Fremont, Calif.), c-Myc and phospho-Myc (Cell Signaling Technology, Beverly, Mass.), Prosaposin (Santa Cruz Biotechnology, Santa Cruz, Calif.), β-actin (AbCam, Cambridge, UK). The membranes were then washed in PBS+0.1% Tween-20 and incubated with either HRP-conjugated goat anti-mouse or anti-rabbit secondary antibody (Jackson Immunoresearch Laboratories, West Grove, Pa.) followed by another wash. […] Protein volume intensity was determined using a Bio-Rad Chemi-Doc XRS system (Bio-Rad, CA). […]

[2] = test system: Tsp-1 expression in WI-38 lung fibroblasts; experiment: Tsp-1 expression in WI-38 lung fibroblasts, western blot; assay type: cell-based, human
Method: (§1) For the conditioned media assay, 1.5×10^6 tumor cells and fibroblasts cells were grown in the tumor cell media containing 0.1% FBS for 12 hours at which point the conditioned media from the tumor cells was centrifuged to remove any cells or cell debris and transferred to the fibroblasts subsequent to removal of the low serum fibroblast growth media. All assays were performed a minimum of five times and representative samples depicted. The fibroblasts and media were harvested after 12 to 16 hours after addition of the tumor cell conditioned media and lysed for the western blot analysis while the conditioned media was collected for ELISA analysis. For the co-culture assays, 1×10^6 fibroblasts were seeded in the bottom chamber of transwell tissue culture plates (Corning Inc., Corning, N.Y.) and 1×10^6 tumor cells were seeded on the membrane in the top chamber of the plates. The two cell types were co-cultured for 40 to 44 hours in tumor cell media containing 0.1% FBS before harvesting and lysing the fibroblasts for western blot analysis and collecting the media for ELISA analysis.
For Western blotting, cells were harvested by mechanical scraping into 4° C. PBS, cell pellets were obtained by removing PBS after centrifugation at 13,000 rpm in a Heraeus Biofuge Fresco (Thermo Electron, Asheville, N.C.) for 2 min. Cells were then lysed in 50 mM Tris-HCl (pH 7.4), 150 mM NaCl, 1% NP40, 1 mM sodium orthovanadate, 5 mM NaF, 20 mM β-glycerophosphate, and complete protease inhibitor (Roche, Indianapolis, Ind.) and protein concentrations were determined by the BioRad protein assay (BioRad, Hercules, Calif.). Fifty micrograms of protein were loaded per well onto a 4-12% pre-cast Bis-Tris gel (BioRad, Hercules, Calif.). The protein extracts were electrophoresed and transferred to an immobilon-P membrane (Millipore, Bedford, Mass.). The membranes were blocked in 5% nonfat milk and incubated in primary antibody to Tsp-1 (Ab-11, LabVision, Fremont, Calif.), c-Myc and phospho-Myc (Cell Signaling Technology, Beverly, Mass.), Prosaposin (Santa Cruz Biotechnology, Santa Cruz, Calif.), β-actin (AbCam, Cambridge, UK). The membranes were then washed in PBS+0.1% Tween-20 and incubated with either HRP-conjugated goat anti-mouse or anti-rabbit secondary antibody (Jackson Immunoresearch Laboratories, West Grove, Pa.) followed by another wash. The membrane was then developed with ECL reagent (Pierce, Rockford, Ill.) and exposed on film. Protein volume intensity was determined using a Bio-Rad Chemi-Doc XRS system (Bio-Rad, CA). […]
Seven 20-amino acid (20-mer) peptides derived from saposin A were tested for ability to stimulate Tsp-1 expression in fibroblasts. […] WI-38 lung fibroblasts were treated with these peptides overnight and the Tsp-1 expression was analyzed by Western blot analysis. […]

[3] = test system: MDM2 in WI-38 fibroblasts; experiment: MDM2 protein levels in WI-38 fibroblasts, western blot; assay type: cell-based, human
[4] = test system: p53 in WI-38 fibroblasts; experiment: p53 expression in WI-38 fibroblasts, western blot; assay type: cell-based, human
[5] = test system: p53 expression in prostate fibroblasts; experiment: p53 expression in prostate fibroblasts, western blot; assay type: cell-based, human
Method: Methods of assaying the effects of mutant, fragment or variant Psap on Tsp-1 and p53 expression are described herein. Briefly, full-length, mutant, fragment and variant Psap are applied to the cell cultures prostate fibroblast. The conditioned media from PC3M-LN4 (LN4) and PC3 cells are used as controls, with PC3 as positive/stimulating control and LN4 as negative/inhibiting controls. After a period of included (˜16 h), the cells are harvested, rinsed, and lysed. The lysates are analyzed for the level of Tsp-1 and p53 expression by western blot analyses, with β-actin as the internal lysate protein loading control. […]
For Western blotting, cells were harvested by mechanical scraping into 4° C. […] Cells were then lysed in 50 mM Tris-HCl (pH 7.4), 150 mM NaCl, 1% NP40, 1 mM sodium orthovanadate, 5 mM NaF, 20 mM β-glycerophosphate, and complete protease inhibitor (Roche, Indianapolis, Ind.) and protein concentrations were determined by the BioRad protein assay (BioRad, Hercules, Calif.). […] Protein volume intensity was determined using a Bio-Rad Chemi-Doc XRS system (Bio-Rad, CA).
Having determined that p53 protein levels were elevated in the stroma of PC3 tumors, the inventors determined if p53 stimulation could be responsible for the increased expression of Tsp-1. […]

[6] = test system: Tsp-1 expression in prostate fibroblasts; experiment: Tsp-1 expression in prostate fibroblasts, western blot; assay type: cell-based, human; details: for stimulation of Tsp-1 by PC3 conditioned media in the presence of inhibitor: prostate fibroblasts treated with PC3 CM plus inhibitor
Method: Methods of assaying the effects of mutant, fragment or variant Psap on Tsp-1 and p53 expression are described herein. Briefly, full-length, mutant, fragment and variant Psap are applied to the cell cultures prostate fibroblast. The conditioned media from PC3M-LN4 (LN4) and PC3 cells are used as controls, with PC3 as positive/stimulating control and LN4 as negative/inhibiting controls. After a period of included (˜16 h), the cells are harvested, rinsed, and lysed. The lysates are analyzed for the level of Tsp-1 and p53 expression by western blot analyses, with β-actin as the internal lysate protein loading control.
as §1
For Western blotting, cells were harvested by mechanical scraping into 4° C. PBS, cell pellets were obtained by removing PBS after centrifugation at 13,000 rpm in a Heraeus Biofuge Fresco (Thermo Electron, Asheville, N.C.) for 2 min. Cells were then lysed in 50 mM Tris-HCl (pH 7.4), 150 mM NaCl, 1% NP40, 1 mM sodium orthovanadate, 5 mM NaF, 20 mM β-glycerophosphate, and complete protease inhibitor (Roche, Indianapolis, Ind.) and protein concentrations were determined by the BioRad protein assay (BioRad, Hercules, Calif.). Fifty micrograms of protein were loaded per well onto a 4-12% pre-cast Bis-Tris gel (BioRad, Hercules, Calif.). The protein extracts were electrophoresed and transferred to an immobilon-P membrane (Millipore, Bedford, Mass.). […] Protein volume intensity was determined using a Bio-Rad Chemi-Doc XRS system (Bio-Rad, CA).

[7] = test system: thrombospondin-1 (Tsp-1); experiment: Tsp-1 expression in lungs and livers of treated mice, western blot; assay type: in vivo
Method: The 20-mer […] (SEQ. ID. No. 29) was tested in vivo in mice for their ability to induce Tsp-1 expression. Four mice were treated with the 20-amino acid peptide (residues 31-50 of saposin A) at a dose of 30 mg/kg/day in combination with 200 μL of conditioned media (CM) from the metastatic prostate cancer cell line PC3M-LN4. […] Another four mice were treated with CM from PC3M-LN4 alone, and a control group of four mice with treated with vehicle (PBS) alone. […] Mice were treated for 9 days after which they were sacrificed and the lungs and livers were harvested and lysed. Tissue lysates were then run on a 4-12% gradient bis-tris polyacrylamide gel and transferred to a nitrocellulose membrane for western blotting with antibodies specific for thrombospondin-1 (Tsp-1) and β-actin.

[8] = test system: semaphorin 3F; experiment: semaphorin 3F mRNA in WI-38 fibroblasts, real time RT-PCR; assay type: cell-based, human; details: conditioned media of cells with or without prosaposin, relative to GAPDH
Method: FIG. 25. mRNA levels of semaphorin 3F, relative to GAPDH, in WI-38 fibroblasts that were untreated (NoTxPrSc) treated with conditioned media from PC3, PC3-shprosaposin (PC3-sh), PC3M-LN4 (LN4) and PC3M-LN4 cells ectopically expressing prosaposin (LN4Psap) as determined by real time RT-PCR.
Finally, it was determined that prosaposin stimulates the expression of semaphorin 3F, a transcriptional target of p53 and an inhibitor of metastasis and lymphangiogenesis, at the mRNA level (FIG. 25).

[9] = WI-38 fibroblasts, in the presence of the cyclic 13-mer
[10] = WI-38 lung fibroblasts treated with peptide
[11] = WI-38 fibroblasts treated with peptide
[12] = mice treated for 9 days, versus control
[13] = mice, 30 mg/kg/day with 200 μL PC3M-LN4 CM, 9 days, compared to PC3M-LN4 CM

4-hydroxy-tamoxifen [4-HT]
reduction in Psap levels [1]: 4 fold

NC(=O)c1ccc(-c2nc(-c3ccc4c(c3)OCCO4)c(-c3ccccn3)[nH]2)cc1 [D4476, reference compound]
Tsp-1 protein level (in words) [2, 9]: reduction | MDM2 protein level (in words) [3, 9]: increase | p53 protein level (in words) [4, 9]: reduction

COc1ccc2c(c1)c(C1=C(c3c[nH]c4ccccc34)C(=O)NC1=O)cn2CCCN(C)C [GO 6983, reference compound]
stimulation of p53 by PC3 conditioned media in the presence of inhibitor ([5]; prostate fibroblasts treated with PC3 CM plus inhibitor): abolished | stimulation of Tsp-1 by PC3 conditioned media in the presence of inhibitor [6]: abolished

CDWLPKPNMSASC (disulfide 1-13) [SEQ. ID. No. 37, cyclic 13 amino acid peptide, residues 35-47 of saposin A]
Tsp-1 expression (in words) [2, 10]: sufficient to stimulate | MDM2 protein level (in words) [3, 11]: down regulation | p53 expression (in words) [4, 11]: sufficient to stimulate

LEKTCDWLPKPNMSASCKEI [SEQ. ID. No. 29, 20-mer, residues 31-50 of saposin A]
level of Tsp-1 stimulation relative to PC3 conditioned media ([7]; mice treated for 9 days, lung and liver): greater | Tsp-1 expression in the liver (in words) [7, 12]: stimulated | Tsp-1 expression in the lung (in words) [7, 12]: stimulated | stimulation of Tsp-1 expression in the liver [7, 13]: 4 fold | stimulation of Tsp-1 expression in the lung [7, 13]: 6 fold | Tsp-1 expression (in words) [2, 10]: able to stimulate

B1: SLPCDICKDVVTAAGDMLKDNATEEEILVYLEKTCDWLPKPNMSASCKEIVDSYLPVILDIIKGEMSRPGEVCSALNLCES (protein, listed as Homo sapiens)
chain: SLPCDICKDVVTAAGDMLKDNATEEEILVYLEKTCDWLPKPNMSASCKEIVDSYLPVILDIIKGEMSRPGEVCSALNLCES
notes: cleavage product of Psap, expressed as truncation mutant
Tsp-1 expression (in words) ([2]; lung fibroblasts, CM from PC3M-LN4 cells transduced with truncated mutants of prosaposin): sufficient to stimulate | stimulation of Tsp-1 (in words) ([6]; prostate fibroblasts, conditioned media of PC3M-LN4 cells transfected with truncation mutants): minimal domain that is functionally required for the stimulation of Tsp-1

B2: RAP: Receptor Associate Protein, a competitive inhibitor of LRP binding (protein)
chain: YSREKNQPKPSPKRESGEEFRMEKLNQLWEKAQRLHLPPVRLAELHADLKIQERDELAWKKLKLDGLDEDGEKEARLIRNLNVILAKYGLDGKKDARQVTSNSLSGTQEDGLDDPRLEKLWHKAKTSGKFSGEELDKLWREFLHHKEKVHEYNVLLETLSRTEEIHENVISPSDLSDIKGSVLHSRHTELKEKLRSINQGLDRLRRVSHQGYSTEAEFEEPRVIDLWDLAQSANLTDKELEAFREELKHFEAKIEKHNHYQKQLEIAHEKLRHAESVGDGERVSRSREKHALLEGRTKELGYTVKKHLQDLSGRISRARHNEL
stimulation of Tsp-1 by PC3 conditioned media in the presence of inhibitor [6]: no longer stimulated

B3: prosaposin: saposin precursor protein, purified from PC3M-LN4 conditioned media with Talon metal affinity resin (protein, listed as Homo sapiens)
chain: MYALFLLASLLGAALAGPVLGLKCTRGSAVWCQNVKTASDCGAVKHCLQTVWNKPTVKSLPCDICKDVVTAAGDMLKDNATILVYLKTCDWLPKPNMSASCKIVDSYLPVILDIIKGMSRPGVCSALNLCSLQKHLALNHQKQLSNKIPLDMTVVAPFMANIPLLLYPQDGPRSKPQPKDNGDVCQDCIQMVTDIQTAVRTNSTFVQALVHVKCDRLGPGMADICKNYISQYSIAIQMMMHMQPKICALVGFCDVKMPMQTLVPAKVASKNVIPALLVPIKKHVPAKSDVYCVCFLVKVTKLIDNNKTKILDAFDKMCSKLPKSLSCQVVDTYGSSILSILLVSPLVCSMLHLCSGTRLPALTVHVTQPKDGGFCVCKKLVGYLDRNLKNSTKQILAALKGCSFLPDPYQKQCDQFVAYPVLIILVVMDPSFVCLKIGACPSAHKPLLGTKCIWGPSYWCQNTTAAQCNAVHCKRHVWN
expression of semaphorin 3F at the mRNA level [8]: stimulates | p53 expression (in words) ([5]; prostate fibroblasts, western blot): stimulated | stimulation of Tsp-1 expression ([6]; prostate fibroblasts, western blot, band volume density, purified Psap 5 μg): ~5 fold
